Test [1] deals with T1, hD2 (Homo sapiens, UniProt P14416).
T1 construct: expressed in transfected cells; host or cells: HEK 293 cells (membrane preparation)
Description: Radioligand binding, hD2 receptor ([3H]spiperone). The protocol:
Binding affinities at human monoamine receptors and transporters were assessed as previously reported. A detailed description of the methodology is provided in the Supplementary information.
(§1) Data analysis was performed with Prism software (version 10.1.2, GraphPad Software, Boston, MA, USA). The IC50 values from the radioligand binding assays were determined by nonlinear regression, using three independent concentration-response curves fitted to a one-site model. The Cheng-Prusoff equation was used to calculate Kᵢ values for the competing ligands. EC50 values were determined by applying nonlinear regression to concentration-response curves. Bias factors (β) were calculated based on the relative intrinsic activity approach. More detailed information can be found in the Supplementary information. Mean values for total number of HTR, change in body temperature from pre to post session (Δ°C), and total distance traveled (cm) for each drug dose were compared (p < 0.05) via Welch’s ANOVA with Dunnett’s T3 post test, comparing all doses to respective vehicle controls (0 mg/kg). Welch’s ANOVA with Dunnett’s T3 post test was also used to compare drug concentrations, but the data were compared to DOM in this case. Dose–response relationships for HTR and locomotor activities were plotted using bell-shaped curve fits, while temperature change data were plotted using four-parameter non-linear regression curve fits. The ascending phase of the HTR curve for each drug was used to determine ED50 potency values from four parameter non-linear regression fits. For combined DOM and DOAM administration, the plasma, brain tissue, and brain dialysate drug concentrations were compared using paired t-tests (p < 0.05). Ratios were compared using Holm-Sidak’s post hoc test following a repeated-measures one-way ANOVA (F (1.709, 6.835) = 70.80; p < 0.0001).
3.1 Assessment of receptor and transporter binding affinities
Membrane preparations were prepared from cells transfected with the respective target. The membrane preparations were then incubated with selective radioligands at concentrations equal to the corresponding Kd and displacement of the ligand by the drugs was measured. The difference between total binding and nonspecific binding (determined in the presence of selective competitors) was defined as specific binding of the radioligand to the target receptor. The following transfected cell lines were used for the binding assays: HEK 293 cells (h5-HT1A, h5-HT2A, h5-HT2B, h5-HT2C, and hD2 receptors, hDAT, hNET, and hSERT), Chinese hamster ovary cells (hα 1A receptor), and Chinese hamster lung cells (hα 2A receptor).
3.1.1 Membrane preparations for receptor and transporter binding
For producing membrane preparations, transfected cells were harvested with trypsin/EDTA, washed with ice-cold phosphate buffered saline, and then pelleted by centrifugation (210 × g for 5 min at 4 °C). The pellets were frozen and stored at -80 °C until use. Frozen pellets were resuspended in 20 m L (receptor binding) or 400 m L (transporter binding) buffer (20 mM HEPES -NaOH, 10 mM EDTA, pH 7.4), and homogenized at 1,100 × g for 20 s (receptor binding) or 560 × g for 15 s (transporter binding); the homogenates were then centrifuged at 48,000 × g for 30 min at 4 °C. […]
Competitive binding at the h5-HT1A and h5-HT2A receptor was determined using 0.90 nM [ 3H]8-hydroxy-2-(di-n-propylamine)tetralin ([ 3H]8-OH-DPAT; h5-HT1A receptor agonist) and 0.40 nM [3H]ketanserin (h5-HT2 receptor antagonist) as radioligands. […]

The target of test [2] is T2, h5-HT2C (Homo sapiens, UniProt P28335).
T2 sequence (P28335 33-458): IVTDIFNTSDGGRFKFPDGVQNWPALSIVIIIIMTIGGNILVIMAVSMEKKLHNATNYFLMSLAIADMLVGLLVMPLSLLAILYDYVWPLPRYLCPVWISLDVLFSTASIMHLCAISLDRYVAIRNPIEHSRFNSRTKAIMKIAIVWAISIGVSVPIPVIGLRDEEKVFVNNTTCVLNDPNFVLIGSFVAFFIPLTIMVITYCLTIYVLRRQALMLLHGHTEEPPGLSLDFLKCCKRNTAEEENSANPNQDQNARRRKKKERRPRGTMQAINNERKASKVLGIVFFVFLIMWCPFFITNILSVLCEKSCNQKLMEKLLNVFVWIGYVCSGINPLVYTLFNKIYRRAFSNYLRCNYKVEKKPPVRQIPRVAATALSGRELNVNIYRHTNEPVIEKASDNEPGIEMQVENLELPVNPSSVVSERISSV
Kind of test: cell-based. The conditions noted are these: for Emax: read-out: IP1 formation Emax h5-HT2C (95% CI).

The test system of test [3] is C57BL/6 J mice. Description: Body temperature change in mice (dose-response sessions). The following applies: pre to post 30-min session, mean ± SEM. The class given is in vivo, mouse. The protocol:
Behavioral studies were conducted as previously described with minor modifications. Male C57BL/6 J mice (The Jackson Laboratory #000664, 24 mice/drug) were purchased at 8 weeks old, group housed for acclimation (3–5 per cage for 1–2 weeks) under a 12:12 light:dark cycle (07:00 local time = lights on), with ad libitum access to food and water at the NIDA IRP facilities in Baltimore, MD, USA. All experiments were approved by the NIDA IRP Animal Care and Use Committee. After acclimation to the vivarium facilities, each mouse was briefly anesthetized with isoflurane and a temperature transponder (14 × 2 mm, model IPTT-300, Bio Medic Data Systems, Inc., Seaford, DE, USA) was implanted subcutaneously (s.c.) on the back, posterior to the shoulder blades. After the implant, mice were single housed and allowed one week recovery prior to the start of experiments. […] Drugs were randomly assigned and administered s.c. as the weight of the form used at an injection volume of 0.01 mL/g body weight.
During experimental testing, mice were tested once every 1–2 weeks to avoid potential tolerance to behavioral effects of the test drugs and were tested 2–3 times in total per drug. Each test session began with a brief 5 min acclimation period to the testing arenas, followed by recording baseline body temperature using a handheld wand that was sensitive to the signals emitted from the s.c. transponder. After this, mice were injected s.c. with appropriate doses of test drug and returned to the chambers for a 30-min test session. During the dose-response sessions, locomotor activity was continuously recorded using open field chambers with photobeam arrays (Coulbourn Instruments, Holliston, MA, USA) that were modified with cylindrical inserts and custom floor panels that also allowed video recordings of each mouse to later quantify HTR activity (GoPro Hero 7 camera; 960p resolution at 120 frames per second). Videos for each mouse were analyzed post session using commercially available software used to quantify HTR as previously described.
as §1
Locomotor activity and body temperature were also assessed to monitor other pharmacological effects of the drugs that may impact the HTR. […]

The source of these data is article PMC12916490 (Molecular Psychiatry, 2025).

In general, Ki refers to a dissociation constant, usually derived from enzyme kinetics or from competition with a known ligand. Low values mean higher affinity, high ones lower affinity. As usually defined, the EC50 is the concentration at which the effect is half-maximal. One may read the Emax as the greatest response seen or fitted, relative to the assay's reference.

Where two headings read alike, the source gives them in different places.

T1 sequence (P14416 whole entry): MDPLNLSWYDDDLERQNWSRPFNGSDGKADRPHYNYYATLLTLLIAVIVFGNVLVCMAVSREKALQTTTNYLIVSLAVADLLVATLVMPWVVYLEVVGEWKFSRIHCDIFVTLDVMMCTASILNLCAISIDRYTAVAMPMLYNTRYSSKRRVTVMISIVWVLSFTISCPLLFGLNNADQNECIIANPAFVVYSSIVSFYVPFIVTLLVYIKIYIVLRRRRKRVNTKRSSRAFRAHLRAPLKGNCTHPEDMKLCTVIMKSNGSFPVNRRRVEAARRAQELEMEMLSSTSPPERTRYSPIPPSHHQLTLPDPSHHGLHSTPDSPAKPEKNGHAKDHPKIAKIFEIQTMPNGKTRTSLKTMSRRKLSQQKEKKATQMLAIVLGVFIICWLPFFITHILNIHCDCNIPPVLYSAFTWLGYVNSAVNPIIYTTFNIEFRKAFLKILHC

`COc1ccc(OC)c(CC(C)N)c1.Cl` (stereo not drawn) [2,5-DMA, 2,5-Dimethoxyamphetamine hydrochloride] returned an inhibition constant Ki in test [1] of more than 13000 nM. Besides, in test [2], a half-maximal effect (EC50) was put at 124 nM. The Emax in test [2] amounted to 103%. Besides, the ΔTemperature is 0.4 ± 0.1 °C in test [3] (0.03 mg/kg s.c.); 0.3 ± 0.1 °C in test [3] (0.1 mg/kg s.c.); 0.5 ± 0.1 °C in test [3] (0.3 mg/kg s.c.); 0.2 ± 0.1 °C in test [3] (1 mg/kg s.c.); 0.2 ± 0.2 °C in test [3] (3 mg/kg s.c.); -0.9 ± 0.2 °C in test [3] (10 mg/kg s.c.). The compound also displayed a ΔTemperature in test [3] (30 mg/kg s.c.) of -4.0 ± 0.5 °C.
Compound `CCCCCc1cc(OC)c(CC(C)N)cc1OC` (stereo not drawn) [DOAM, 4-amyl-2,5-dimethoxyamphetamine] yielded an inhibitory constant (Ki) in test [1] of more than 13000 nM. In test [2], this compound displayed a concentration giving a half-maximal response (EC50) of 0.9 nM. The maximal effect (Emax) in test [2] was 94%. In addition, the ΔTemperature in test [3] (0.03 mg/kg s.c.) was 0.0 ± 0.1 °C; in test [3] (0.1 mg/kg s.c.) it was 0.0 ± 0.1 °C; in test [3] (0.3 mg/kg s.c.), -0.3 ± 0.2 °C; in test [3] (1 mg/kg s.c.) it was -0.1 ± 0.2 °C; in test [3] (3 mg/kg s.c.) it was -0.2 ± 0.1 °C; in test [3] (10 mg/kg s.c.) it was -0.2 ± 0.2 °C. In test [3] (30 mg/kg s.c.), this compound had a ΔTemperature of -3.9 ± 0.4 °C.
In test [1], `CCCCc1cc(OC)c(CC(C)N)cc1OC` (stereo not drawn) [DOBU, 4-butyl-2,5-dimethoxyamphetamine] yielded a Ki of more than 13000 nM. The same compound came in with an EC50 in test [2] of 0.13 nM. Moreover, in test [2] (normalized to maximal effect of 5-HT), the Emax is 95%. The ΔTemperature in test [3] (0.03 mg/kg s.c.) was -0.1 ± 0.1 °C; in test [3] (0.1 mg/kg s.c.), -0.1 ± 0.2 °C; in test [3] (0.3 mg/kg s.c.) it was 0.1 ± 0.1 °C; in test [3] (1 mg/kg s.c.), -0.4 ± 0.1 °C; in test [3] (3 mg/kg s.c.), -0.3 ± 0.2 °C; in test [3] (10 mg/kg s.c.), -1.7 ± 0.6 °C. The compound also returned a ΔTemperature in test [3] (30 mg/kg s.c.) of -5.5 ± 0.4 °C.
In turn, `CCc1cc(OC)c(CC(C)N)cc1OC` (stereo not drawn) [DOET, 4-ethyl-2,5-dimethoxyamphetamine] registered an inhibitory constant (Ki) in test [1] of more than 13000 nM.
Consider `COc1cc(CC(C)N)c(OC)cc1C` (stereo not drawn) [DOM, 4-methyl-2,5-dimethoxyamphetamine], for which the Ki in test [1] is more than 7500 nM. In addition, the ΔTemperature in test [3] (0.03 mg/kg s.c.) is -0.1 ± 0.1 °C; in test [3] (0.1 mg/kg s.c.), 0.0 ± 0.1 °C; in test [3] (0.3 mg/kg s.c.), -0.1 ± 0.1 °C; in test [3] (1 mg/kg s.c.), 0.1 ± 0.1 °C; in test [3] (3 mg/kg s.c.), -0.2 ± 0.1 °C; in test [3] (10 mg/kg s.c.), -2.2 ± 0.8 °C. This compound displayed a ΔTemperature in test [3] (30 mg/kg s.c.) of -6.5 ± 0.2 °C.
For `CCCc1cc(OC)c(CC(C)N)cc1OC.Cl` (stereo not drawn) [DOPR, 4-propyl-2,5-dimethoxyamphetamine hydrochloride], a half-maximal response in test [2] (EC50) required 0.93 nM. Besides, the Emax in test [2] stood at 99%. Moreover, the ΔTemperature in test [3] (0.01 mg/kg s.c.) is 0.3 ± 0.2 °C; in test [3] (0.03 mg/kg s.c.), 0.1 ± 0.1 °C; in test [3] (0.1 mg/kg s.c.) it was 0.1 ± 0.2 °C; in test [3] (0.3 mg/kg s.c.), 0.0 ± 0.2 °C; in test [3] (1 mg/kg s.c.) it was -0.1 ± 0.1 °C; in test [3] (3 mg/kg s.c.), -3.0 ± 0.6 °C. In test [3] (10 mg/kg s.c.), this compound had a ΔTemperature of -4.9 ± 0.5 °C.
